We go through 22 compounds from patent publication US9566254B2, “Inhibitors and methods of inhibiting bacterial and viral pathogens” (priority 2010, dated 2017).

SMILES strings stand for the structures. Structures can show the parent of a compound that is named as a salt. A value given as a limit tells only on which side of the number the result lay.

What all share (test): microbe, parasite or virus in culture
Format in all cases: cell-based

Test [1] concerns La Crosse virus (LACV). Particulars: La Crosse virus, Vero, read-out: Avg Activity (LACV).
Test [2] concerns vaccinia virus. Particulars: Orthopoxvirus vaccinia, read-out: Avg Activity (VV).
Test [3] concerns Chlamydophila caviae. As to conditions: Chlamydia caviae, Vero, read-out: Avg Activity (C. Caviae).

On to `CC(C)(C)c1ccc(C(=O)NC(=S)Nc2ccc(NC(=O)c3ccccc3Cl)c(O)c2)cc1` [Compound 2, N-[4-[(4-tert-butylbenzoyl)-carbamothioylamino]-2-hydroxy-phenyl]-2-chloro-benzamide], for which the EC50 in test [1], in test [2] and in test [3] was less than 1000 nM each time.

In the case of `COc1cc(NC(=S)NC(=O)c2ccc(C(C)(C)C)cc2)ccc1N(C)c1ccccc1Cl` [Compound 3, 4-tert-butyl-N-[[4-[(2-chlorophenyl)-methylamino]-3-methoxy-phenyl]-carbamothioyl]-benzamide], the EC50 in test [1], in test [2] and in test [3] was less than 1000 nM in each case.

On to `CC(C)(C)c1ccc(C(=O)NC(=S)Nc2ccc(N)cc2Cl)cc1` [Compound 4, N-[(4-amino-2-chloro-phenyl)carbamothioyl]-4-tert-butyl-benzamide hydrochloride], for which the EC50 in test [1], in test [2] and in test [3] was less than 1000 nM in each case.

For the compound `CNc1ccc(NC(=S)NC(=O)c2ccc(C(C)(C)C)cc2)c(Cl)c1` [Compound 5, 4-tert-butyl-N-[[2-chloro-4-(methylamino)phenyl]-carbamothioyl]benzamide hydrochloride], the EC50 in test [1], in test [2] and in test [3] was less than 1000 nM throughout.

Consider `CC(C)(C)c1ccc(C(=O)NC(=S)Nc2ccc(NC(=O)c3ccccc3)cc2Cl)cc1` [Compound 7, N-[(4-benzamido-2-chloro-phenyl)carbamothioyl]-4-tert-butyl-benzamide], for which the EC50 in test [1], in test [2] and in test [3] was less than 1000 nM in each case.

For the compound `COc1cc(NC(=S)NC(=O)c2ccc(C(C)(C)C)cc2)ccc1NC(=S)c1ccccc1Cl` [Compound 8, 4-tert-butyl-N-[[4-[(2-chlorobenzene-carbothioyl)amino]-3-methoxy-phenyl]-carbamothioyl]benzamide], the EC50 in test [1], in test [2] and in test [3] was less than 1000 nM each time.

Turning to `CCS/C(=N\C(=O)c1ccc(C(C)(C)C)cc1)Nc1cc(C)ccc1Cl` [Compound 9, (NZ)-4-tert-butyl-N-[(2-chloro-5-methyl-anilino)-ethylsulfanyl-methylene]benzamide], the EC50 in test [1], in test [2] and in test [3] was less than 1000 nM throughout.

As to `CCS/C(=N\C(=O)c1ccc(C(C)(C)C)cc1)Nc1ccc(NC(=O)c2ccccc2Cl)c(OC)c1` [Compound 10, N-[4-[[(Z)—N-(4-tert-butylbenzoyl)-C-ethylsulfanyl-carbonimidoyl]amino]-2-methoxy-phenyl]-2-chloro-benzamide], the results for the EC50 in test [1], in test [2] and in test [3] were less than 1000 nM, less than 1000 nM and 1000 to 10000 nM, respectively.

On to `COc1cc(NC(=S)NC(=O)c2ccc(C(C)(C)C)cc2)ccc1NC(=O)c1ccc(CN)cc1` [Compound 12, hydrochloride], for which the figures for the EC50 in test [1], in test [2] and in test [3] were more than 25000 nM, less than 1000 nM and less than 1000 nM, respectively.

On to `Cc1cccc(Cl)c1NC(=S)NC(=O)c1ccc(C(C)(C)C)cc1` [Compound 13, 4-tert-butyl-N-[(2-chloro-6-methyl-phenyl)-carbamothioyl]benzamide], for which the EC50 in test [1] is less than 1000 nM; in test [2] it was 1000 to 10000 nM; in test [3] it was less than 1000 nM.

Turning to `CCS/C(=N\C(=O)c1ccc(C(C)(C)C)cc1)Nc1ccccc1Cl` [Compound 14, (NZ)-4-tert-butyl-N-[(2-chloroanilino)-ethylsulfanyl-methylene]benzamide], the EC50 in test [1] is less than 1000 nM; in test [2], 1000 to 10000 nM; in test [3] it was less than 1000 nM.

`CC(C)(C)c1ccc(C(=O)NC(=S)Nc2cccc(C(F)(F)F)c2Cl)cc1` [Compound 15, 4-tert-butyl-N-[[2-chloro-3-(trifluoromethyl)phenyl]-carbamothioyl]benzamide]: the EC50 in test [1] is less than 1000 nM; in test [2], 1000 to 10000 nM; in test [3] it was less than 1000 nM.

Take `COc1cc(NC(=S)NC(=O)c2ccc(C(C)(C)C)cc2)ccc1NS(=O)(=O)c1cccc2c(N(C)C)cccc12` [Compound 16, 4-tert-butyl-N-[[4-[[5-(dimethylamino)-1-naphthyl]sulfonylamino]-3-methoxy-phenyl]-carbamothioyl]benzamide]: the figures for the EC50 in test [1], in test [2] and in test [3] were 1000 to 10000 nM, 1000 to 10000 nM and less than 1000 nM, respectively.

For `Cc1cccc(NC(=S)NC(=O)c2ccc(C(C)(C)C)cc2)c1Cl` [Compound 19, 4-tert-butyl-N-[(2-chloro-3-methyl-phenyl)-carbamothioyl]benzamide], the EC50 was 1000 to 10000 nM in test [1], 1000 to 10000 nM in test [2] and less than 1000 nM in test [3].

`CN(C)c1ccc(NC(=S)NC(=O)c2ccc(C(C)(C)C)cc2)c(Cl)c1` [Compound 22, 4-tert-butyl-N-[[2-chloro-4-(dimethylamino)phenyl]-carbamothioyl]benzamide hydrochloride]: the figures for the EC50 in test [1], in test [2] and in test [3] were 1000 to 10000 nM, 1000 to 10000 nM and less than 1000 nM, respectively.

For `COc1cc(NC(=S)NC(=N)c2ccc(C(C)(C)C)cc2)ccc1NC(=O)c1ccccc1Cl` [Compound 23, N-[4-[(4-tert-butylbenzene-carboximidoyl)-carbamothioylamino]-2-methoxy-phenyl]-2-chloro-benzamide], the EC50 in test [1] was 1000 to 10000 nM; in test [2] it was 1000 to 10000 nM; in test [3], less than 1000 nM.

In the case of `COc1cc(NC(=S)NC(=O)c2ccc(C(C)(C)C)cc2)ccc1NC(=N)c1ccccc1Cl` [Compound 24, 4-tert-butyl-N-[[4-[(2-chlorobenzene-carboximidoyl)amino]-3-methoxy-phenyl]-carbamothioyl]benzamide], the figures for the EC50 in test [1], in test [2] and in test [3] were 1000 to 10000 nM, 1000 to 10000 nM and less than 1000 nM, respectively.

As for `COc1cc(NC(=S)NC(=O)c2ccc(C(C)(C)C)cc2)ccc1NC(=O)CCCCC1SCC2NC(=O)NC21` (centres unmarked) [Compound 25, 4-tert-butyl-N-[[3-methoxy-4-[5-(2-oxo-1,3,3a,4,6,6a-hexahydrothieno[3,4-d]imidazol-4-yl)-pentanoylamino]phenyl]-carbamothioyl]benzamide], the EC50 is more than 25000 nM in test [1], 1000 to 10000 nM in test [2] and 1000 to 10000 nM in test [3].

Take `CC(C)(C)c1ccc(C(=O)NC(=S)Nc2cc(OC(F)(F)F)ccc2Cl)cc1` [Compound 29, 4-tert-butyl-N-[[2-chloro-5-(trifluoromethoxy)phenyl]-carbamothioyl]benzamide]: the EC50 in test [1] was more than 25000 nM; in test [2], 1000 to 10000 nM.

As for `COc1cc(NC(=S)NC(=O)c2ccc(C(C)(C)C)cc2)ccc1NC(=O)c1cccnc1` [Compound 30, N-[4-[(4-tert-butylbenzoyl)-carbamothioylamino]-2-methoxy-phenyl]pyridine-3-carboxamide], the EC50 in test [2] is 1000 to 10000 nM; in test [3] it was less than 1000 nM.

With `COc1cc(NC(=S)NC(=O)c2ccc(C(C)(C)C)cc2)ccc1NC(=O)c1ccncc1` [Compound 31, N-[4-[(4-tert-butylbenzoyl)-carbamothioylamino]-2-methoxy-phenyl]pyridine-4-carboxamide], the EC50 in test [2] is 1000 to 10000 nM; in test [3] it was less than 1000 nM.

As for `COc1cc(NC(=S)NC(=O)c2ccc(C(C)(C)C)cc2)ccc1NC(N)=O` [Compound 37, 4-tert-butyl-N-[(3-methoxy-4-ureido-phenyl)carbamothioyl]-benzamide], the figures for the EC50 in test [1] and in test [2] were 1000 to 10000 nM and more than 25000 nM, respectively.
